Laboratory results from article PMC11995724, “Antibiotic target discovery by integrated phenotypic and activity-based profiling of electrophilic fragments” (Cell chemical biology, 2025).

Test: in vitro
Conditions: human, hek293t cells
Procedure: Mammalian cytotoxicity measurement was performed using Cell Titer-Glo 2.0 Cell Viability Assay (Promega, G9243) according to the manufacturer protocol. In brief, mammalian cells were seeded into 384-well white plates (Greiner, 781080) and incubated at 37°C for one day. Compounds from the Cys-Library were dispensed into the assay plate using epMotion 96. The plates were then incubated at 37°C for two days. An equal volume of Cell Titer-Glo 2.0 reagent was added into each well of the assay plate using epMotion 96 and incubated at 22°C for 10 min, followed by luminescence measurement using a Cytation 5 plate reader (BioTek).

Row | Structure (SMILES) | viability at 48 h, 25 µM [%]
1 | N#CC(=Cc1cccc(F)c1F)C(=O)NC(N)=O [8-H04, {2-cyano-2-[(2,3-difluorophenyl)methylidene]acetyl}urea] | 89.9
2 | CCCn1c(C)cc(C=C(C#N)C(=O)Nc2ccccc2)c1C [8-H05, 2-cyano-3-(2,5-dimethyl-1-propyl-1H-pyrrol-3-yl)-N-phenylprop-2-enamide] | 108
3 | N#CC(=Cc1c[nH]nc1-c1ccccc1F)C(=O)Nc1ccccc1F [8-H06, 2-cyano-N-(2-fluorophenyl)-3-[3-(2-fluorophenyl)-1H-pyrazol-4-yl]prop-2-enamide] | 90.8
4 | COc1cc(C=C(C#N)C(=O)Nc2ccc(F)cc2)cc(Cl)c1O [8-H07, 3-(3-chloro-4-hydroxy-5-methoxyphenyl)-2-cyano-N-(4-fluorophenyl)prop-2-enamide] | 87.7
5 | COc1ccccc1NC(=O)C(C#N)=Cc1ccco1 [8-H08, 2-cyano-3-(furan-2-yl)-N-(2-methoxyphenyl)prop-2-enamide] | 93
6 | Cc1ccccc1NC(=O)C(C#N)=Cc1cccc2ccccc12 [8-H09, 2-cyano-N-(2-methylphenyl)-3-(naphthalen-1-yl)prop-2-enamide] | 88.4
7 | N#CC(C(=O)Nc1ccccc1)=C1NCCCN1 [8-H10, 2-cyano-2-(1,3-diazinan-2-ylidene)-N-phenylacetamide] | 97.7
8 | Cc1ccc(NC(=O)C(C#N)=Cc2cccc(C(F)(F)F)c2)c(C)c1 [8-H11, 2-cyano-N-(2,4-dimethylphenyl)-3-[3-(trifluoromethyl)phenyl]prop-2-enamide] | 75
9 | Cc1ccc(C=C(C#N)C(=O)NCCc2ccccc2)o1 [8-H12, 2-cyano-3-(5-methylfuran-2-yl)-N-(2-phenylethyl)prop-2-enamide] | 118
10 | COc1ccc(C=C(C#N)C(=O)NC2CCCCC2)cc1O [8-H13, 2-cyano-N-cyclohexyl-3-(3-hydroxy-4-methoxyphenyl)prop-2-enamide] | 86.5
11 | CCCCNC(=O)C(C#N)=Cc1ccc(F)cc1F [8-H14, N-butyl-2-cyano-3-(2,4-difluorophenyl)prop-2-enamide] | 103
12 | CC(C)NC(=O)C(C#N)=Cc1cccs1 [8-H15, 2-cyano-N-(propan-2-yl)-3-(thiophen-2-yl)prop-2-enamide] | 117
13 | N#CC(=Cc1cn(-c2ccccc2)nc1-c1ccc(Cl)cc1)C(N)=O [8-H16, 3-[3-(4-chlorophenyl)-1-phenyl-1H-pyrazol-4-yl]-2-cyanoprop-2-enamide] | 125
14 | N#CC(=Cc1ccc(Cl)cc1Cl)C(N)=O [8-H17, 2-cyano-3-(2,4-dichlorophenyl)prop-2-enamide] | 93.6
15 | N#CC(=Cc1ccccc1OC(F)F)C(=O)NC1CCCCC1 [8-H18, 2-cyano-N-cyclohexyl-3-[2-(difluoromethoxy)phenyl]prop-2-enamide] | 20.8
16 | COc1ccc(C=C(C#N)C(=O)Nc2ccc3c(c2)OCCO3)cc1O [8-H19, 2-cyano-N-(2,3-dihydro-1,4-benzodioxin-6-yl)-3-(3-hydroxy-4-methoxyphenyl)prop-2-enamide] | 99.8
17 | CN1C=C(C(F)(F)F)C=CC1=C(C#N)C(=O)Nc1ccccc1F [8-H20, 2-cyano-N-(2-fluorophenyl)-2-[1-methyl-5-(trifluoromethyl)-1,2-dihydropyridin-2-ylidene]acetamide] | 90.1
18 | COc1cc(C=C(C#N)C(=O)NC2CCCCC2)cc(Cl)c1O [8-H21, 3-(3-chloro-4-hydroxy-5-methoxyphenyl)-2-cyano-N-cyclohexylprop-2-enamide] | 92.7
19 | N#CC(C(=O)Nc1ccc(Cl)cc1)=C(S)Nc1ccccc1 [8-H22, N-(4-chlorophenyl)-2-cyano-3-(phenylamino)-3-sulfanylprop-2-enamide] | 78.8
20 | COc1ccc(C=C(C#N)C(=O)Nc2cccc([N+](=O)[O-])c2)cc1 [8-I03, 2-cyano-3-(4-methoxyphenyl)-N-(3-nitrophenyl)prop-2-enamide] | 105
21 | COc1ccc(NC(=O)C(C#N)=Cc2c(C)n[nH]c2C)cc1 [8-I04, 2-cyano-3-(3,5-dimethyl-1H-pyrazol-4-yl)-N-(4-methoxyphenyl)prop-2-enamide] | 84.7
22 | COc1ccc(C=C(C#N)C(=O)Nc2ccc(C)c(C)c2)cc1 [8-I05, 2-cyano-N-(3,4-dimethylphenyl)-3-(4-methoxyphenyl)prop-2-enamide] | 87.4
23 | CC1CCCCC1NC(=O)C(C#N)=Cc1ccc(N2CCOCC2)cc1 (centres unmarked) [8-I06, 2-cyano-N-(2-methylcyclohexyl)-3-[4-(morpholin-4-yl)phenyl]prop-2-enamide] | 52.8
24 | Cc1cccc(C)c1NC(=O)C(C#N)=Cc1ccsc1 [8-I07, 2-cyano-N-(2,6-dimethylphenyl)-3-(thiophen-3-yl)prop-2-enamide] | 85.3
25 | CC(C)NC(=O)C(C#N)=Cc1cnn(-c2ccc(Cl)cc2)c1 [8-I08, 3-[1-(4-chlorophenyl)-1H-pyrazol-4-yl]-2-cyano-N-(propan-2-yl)prop-2-enamide] | 77.6

Row | Structure (SMILES) | viability at 48 h, 25 µM [%]
26 | COc1ccc(C=C(C#N)C(=O)Nc2cccc(Cl)c2)cc1 [8-I09, N-(3-chlorophenyl)-2-cyano-3-(4-methoxyphenyl)prop-2-enamide] | 80
27 | N#CC(=Cc1cc(F)ccc1F)C(=O)Nc1ccc2c(c1)OCCO2 [8-I10, 2-cyano-3-(2,5-difluorophenyl)-N-(2,3-dihydro-1,4-benzodioxin-6-yl)prop-2-enamide] | 53.5
28 | CSc1ccc(C=C(C#N)C(=O)N2CCCC2)cc1 [8-I11, 3-[4-(methylsulfanyl)phenyl]-2-(pyrrolidine-1-carbonyl)prop-2-enenitrile] | 106
29 | N#CC(=Cc1cc(F)ccc1F)C(=O)NC1CCCC1 [8-I12, 2-cyano-N-cyclopentyl-3-(2,5-difluorophenyl)prop-2-enamide] | 16.8
30 | Cc1cc(C)c(NC(=O)C(C#N)=Cc2ccc(C(C)(C)C)cc2)c(C)c1 [8-I13, 3-(4-tert-butylphenyl)-2-cyano-N-(2,4,6-trimethylphenyl)prop-2-enamide] | 9.25
31 | N#CC(=Cc1cccc(O)c1)C(=O)Nc1ccc(N2CCOCC2)cc1 [8-I14, 2-cyano-3-(3-hydroxyphenyl)-N-[4-(morpholin-4-yl)phenyl]prop-2-enamide] | 82.5
32 | N#CC(=Cc1ccsc1)C(=O)NCc1ccc(Cl)cc1 [8-I15, N-[(4-chlorophenyl)methyl]-2-cyano-3-(thiophen-3-yl)prop-2-enamide] | 101
33 | Cc1cccc(NC(=O)C(C#N)=Cc2ccc(F)c(F)c2)c1 [8-I16, 2-cyano-3-(3,4-difluorophenyl)-N-(3-methylphenyl)prop-2-enamide] | 75.5
34 | N#CC(=Cc1ccc([N+](=O)[O-])o1)C(=O)NCc1ccco1 [8-I17, 2-cyano-N-[(furan-2-yl)methyl]-3-(5-nitrofuran-2-yl)prop-2-enamide] | 1.08
35 | N#CC(=Cc1ccc(F)cc1)C(=O)Nc1ccccc1C(F)(F)F [8-I18, 2-cyano-3-(4-fluorophenyl)-N-[2-(trifluoromethyl)phenyl]prop-2-enamide] | 81.7
36 | CC(C)NC(=O)C(C#N)=Cc1ccc(-c2ccc([N+](=O)[O-])cc2)o1 [8-I19, 2-cyano-3-[5-(4-nitrophenyl)furan-2-yl]-N-(propan-2-yl)prop-2-enamide] | 93
37 | N#CC(=Cc1ccco1)C(=O)Nc1cccc(Cn2cccn2)c1 [8-I20, 2-cyano-3-(furan-2-yl)-N-{3-[(1H-pyrazol-1-yl)methyl]phenyl}prop-2-enamide] | 82.1
38 | Cc1ccc(C=C(C#N)C(=O)NC(C)C)o1 [8-I21, 2-cyano-3-(5-methylfuran-2-yl)-N-(propan-2-yl)prop-2-enamide] | 95.7
39 | CCOc1ccc(C=C(C#N)C(=O)Nc2ccncc2)cc1 [8-I22, 2-cyano-3-(4-ethoxyphenyl)-N-(pyridin-4-yl)prop-2-enamide] | 99.3
40 | Cc1ccccc1NC(=O)C(C#N)=Cc1ccc2c(c1)OCCO2 [8-J03, 2-cyano-3-(2,3-dihydro-1,4-benzodioxin-6-yl)-N-(2-methylphenyl)prop-2-enamide] | 93.5
41 | C=CCNC(=O)C(C#N)=Cc1ccc(C(=O)O)cc1 [8-J04, 4-{2-cyano-2-[(prop-2-en-1-yl)carbamoyl]eth-1-en-1-yl}benzoic acid] | 87.1
42 | N#CC(=Cc1ccc(C#N)cc1)C(=O)Nc1cccc(Cl)c1Cl [8-J05, 2-cyano-3-(4-cyanophenyl)-N-(2,3-dichlorophenyl)prop-2-enamide] | 112
43 | N#CC(=Cc1cccc(Cl)c1Cl)C(=O)NCCc1ccccc1 [8-J06, 2-cyano-3-(2,3-dichlorophenyl)-N-(2-phenylethyl)prop-2-enamide] | 10.1
44 | Cc1cccc(C=C(C#N)C(=O)NC(C)C)c1 [8-J07, 2-cyano-3-(3-methylphenyl)-N-(propan-2-yl)prop-2-enamide] | 94.3
45 | CC(C)NC(=O)C(C#N)=Cc1ccc(Cl)c([N+](=O)[O-])c1 [8-J08, 3-(4-chloro-3-nitrophenyl)-2-cyano-N-(propan-2-yl)prop-2-enamide] | 0.544
46 | N#CC(=Cc1cccc2ccccc12)C(=O)NCc1ccc(Cl)cc1 [8-J09, N-[(4-chlorophenyl)methyl]-2-cyano-3-(naphthalen-1-yl)prop-2-enamide] | 66
47 | Cn1cc(C=C(C#N)C(=O)NCc2ccccc2)cn1 [8-J10, N-benzyl-2-cyano-3-(1-methyl-1H-pyrazol-4-yl)prop-2-enamide] | 111
48 | CC(NC(=O)C(C#N)=Cc1ccc(-c2ccccc2)cc1)c1ccccc1 (centres unmarked) [8-J11, 3-{[1,1'-biphenyl]-4-yl}-2-cyano-N-(1-phenylethyl)prop-2-enamide] | 26.5
49 | COc1ccc(C=C(C#N)C(=O)NCc2ccco2)cc1 [8-J12, 2-cyano-N-[(furan-2-yl)methyl]-3-(4-methoxyphenyl)prop-2-enamide] | 112
50 | N#CC(=Cc1cccc(Cl)c1)C(=O)Nc1ccccc1C(F)(F)F [8-J13, 3-(3-chlorophenyl)-2-cyano-N-[2-(trifluoromethyl)phenyl]prop-2-enamide] | 101
